Experimental data taken from ChEMBL document CHEMBL6109094, “Anti-inflammatory agents design via the fragment hybrid strategy in the discovery of compound c1 for treating ALI and UC” (Eur J Med Chem, 2025).
The source made the active and inactive calls. The calls are words filed in the database; no cut-off is given here.

Columns and labels:
RAW264.7 [1] = assay: Anti-inflammatory activity in mouse RAW264.7 cells assessed as inhibition of LPS-induced IL-6 level at 10 uM preincubated for 30 mins followed by LPS addition measured after 24 hrs by ELISA relative to control; format: functional; conditions: time 24.5 hrs
RAW264.7 [2] = assay: cells; conditions: Mus musculus
Description: Anti-inflammatory activity in mouse RAW264.7 cells assessed as inhibition of LPS-induced IL-6 level preincubated for 30 mins followed by LPS addition measured after 24 hrs by ELISA

[3] = target: T1, Tyrosine-protein kinase JAK3 (Homo sapiens, UniProt P52333); assay: Inhibition of JAK3 (unknown origin)
T1 sequence (P52333 whole entry): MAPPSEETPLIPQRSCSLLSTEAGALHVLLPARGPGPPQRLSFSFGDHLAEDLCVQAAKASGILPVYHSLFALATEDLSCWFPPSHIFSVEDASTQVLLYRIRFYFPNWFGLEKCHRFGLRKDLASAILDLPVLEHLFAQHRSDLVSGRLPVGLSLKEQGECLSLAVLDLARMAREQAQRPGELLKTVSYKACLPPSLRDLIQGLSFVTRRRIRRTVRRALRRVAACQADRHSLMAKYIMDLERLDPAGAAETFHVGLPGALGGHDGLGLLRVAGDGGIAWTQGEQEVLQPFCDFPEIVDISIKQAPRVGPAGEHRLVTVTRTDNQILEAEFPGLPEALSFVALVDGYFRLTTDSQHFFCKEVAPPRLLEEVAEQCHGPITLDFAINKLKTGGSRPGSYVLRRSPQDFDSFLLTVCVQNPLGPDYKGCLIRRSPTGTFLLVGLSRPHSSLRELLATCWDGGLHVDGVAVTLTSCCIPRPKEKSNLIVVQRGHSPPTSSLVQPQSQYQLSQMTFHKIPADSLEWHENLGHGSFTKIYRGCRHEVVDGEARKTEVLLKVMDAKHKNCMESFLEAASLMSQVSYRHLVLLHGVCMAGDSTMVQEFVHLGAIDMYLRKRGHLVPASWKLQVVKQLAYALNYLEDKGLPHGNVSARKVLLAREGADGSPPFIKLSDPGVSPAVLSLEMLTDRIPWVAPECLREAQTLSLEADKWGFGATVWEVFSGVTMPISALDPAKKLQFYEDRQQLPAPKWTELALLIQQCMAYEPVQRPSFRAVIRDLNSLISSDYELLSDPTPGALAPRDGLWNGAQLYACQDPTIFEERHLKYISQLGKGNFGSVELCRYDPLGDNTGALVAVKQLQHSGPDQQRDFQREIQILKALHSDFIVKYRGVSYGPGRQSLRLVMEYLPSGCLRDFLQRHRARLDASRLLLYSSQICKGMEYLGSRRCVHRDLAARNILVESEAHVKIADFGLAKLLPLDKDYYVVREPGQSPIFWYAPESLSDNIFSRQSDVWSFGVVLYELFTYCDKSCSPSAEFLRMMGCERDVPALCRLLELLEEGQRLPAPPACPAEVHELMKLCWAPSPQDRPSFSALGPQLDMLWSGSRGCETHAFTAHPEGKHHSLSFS

SMILES	inhibition at 10 µM (RAW264.7 [1]) [%]	also measured
COc1cc2ncnc(O[C@H]3CC[C@@H](NCCN4CCN(C(C)=O)CC4)CC3)c2cc1O	66.1	–
COc1cc2c(O[C@H]3CC[C@@H](NCCN4CCN(C(=O)OC(C)(C)C)CC4)CC3)ncnc2cc1OCc1ccccc1	–	inhibition (RAW264.7 [1]): inactive
Clc1ccc2c(O[C@H]3CC[C@@H](NCCN4CCNCC4)CC3)ncnc2c1	58.9	–
COc1cc2ncnc(O[C@H]3CC[C@@H](NCC4CCCNC4)CC3)c2cc1O (some centres not stated)	–	inhibition (RAW264.7 [1]): inactive
CC(C)(C)OC(=O)N1CCN(CCN[C@H]2CC[C@@H](Oc3ncnc4cc(Cl)ccc34)CC2)CC1	68.7	–
COc1cc2c(O[C@H]3CC[C@@H](NCCN4CCN(C(=O)OC(C)(C)C)CC4)CC3)ncnc2cc1O	53.6	–
COc1cc2c(O[C@H]3CC[C@@H](N)CC3)ncnc2cc1OCc1ccc([N+](=O)[O-])cc1	86.6	IC50 (RAW264.7 [2]): 650 nM
COc1cc2ncnc(O[C@H]3CC[C@@H](NCCN4CCN(C(=O)OC(C)(C)C)CC4)CC3)c2cc1OC	10.8	–
COc1cc2ncnc(O[C@H]3CC[C@@H](NC(=O)CCN4CCN(C(=O)OC(C)(C)C)CC4)CC3)c2cc1O	17.5	–
COc1cc2ncnc(O[C@H]3CC[C@@H](NCC4CCCN(C(=O)OC(C)(C)C)C4)CC3)c2cc1O (some centres not stated)	68.7	–
COc1cc2c(O[C@H]3CC[C@@H](N)CC3)ncnc2cc1OCc1cccc(C)c1	89.5	IC50 (RAW264.7 [2]): 600 nM
COc1cc2ncnc(O[C@H]3CC[C@@H](NCCN4CCN(C(=O)OC(C)(C)C)CC4)CC3)c2cc1O	59.4	–
COc1cc2c(O[C@H]3CC[C@@H](N)CC3)ncnc2cc1OCc1ccccc1Br	33.2	–
COc1cc2ncnc(O[C@H]3CC[C@@H](NCCN4CCN(C(=O)OC(C)(C)C)CC4)CC3)c2cc1OCc1ccccc1	58.1	–
COc1cc2c(O[C@H]3CC[C@@H](N)CC3)ncnc2cc1OCc1cccc([N+](=O)[O-])c1	75.2	–
COc1cc2ncnc(O[C@H]3CC[C@@H](NC(=O)CN4CCN(C(=O)OC(C)(C)C)CC4)CC3)c2cc1O	11.8	–
COc1cc2ncnc(O[C@H]3CC[C@@H](NCCN4CCNCC4)CC3)c2cc1OCc1ccccc1	62.7	–
COc1cc2ncnc(O[C@H]3CC[C@@H](NCCN4CCNCC4)CC3)c2cc1O	46.5	–
COc1cc2c(O[C@H]3CC[C@@H](NCCN4CCNCC4)CC3)ncnc2cc1OCc1ccccc1	74.2	IC50 (RAW264.7 [2]): 3550 nM
COc1cc2ncnc(O[C@H]3CC[C@@H](NCCCN4CCN(C)CC4)CC3)c2cc1O	4.51	–
COc1cc2c(O[C@H]3CC[C@@H](N)CC3)ncnc2cc1OCc1ccc(C)cc1	87.2	IC50 (RAW264.7 [2]): 1590 nM
COc1cc2c(O[C@H]3CC[C@@H](N)CC3)ncnc2cc1OCc1ccccc1[N+](=O)[O-]	30.6	–
COc1cc2c(O[C@H]3CC[C@@H](NCCN4CCNCC4)CC3)ncnc2cc1O	58.4	–
COc1cc2ncnc(Nc3cc(Br)c(O)c(Br)c3)c2cc1OC	–	IC50 [3]: 2500 nM
COc1cc2ncnc(O[C@H]3CC[C@@H](NCCN4CCNCC4)CC3)c2cc1OC	–	inhibition (RAW264.7 [1]): inactive
COc1cc2ncnc(O[C@H]3CC[C@@H](NC(=O)CCN4CCNCC4)CC3)c2cc1O	9.85	–
COc1cc2c(O[C@H]3CC[C@@H](N)CC3)ncnc2cc1OCc1ccc(Br)cc1	–	inhibition (RAW264.7 [1]): inactive
COc1cc2ncnc(O[C@H]3CC[C@@H](NC(=O)CN4CCNCC4)CC3)c2cc1O	37.1	–
